Entries after “also recorded” stand apart in the source; their conditions may differ. Peptide text beside a SMILES is read from it. * marks the point of attachment. Cbz = O=C(OCc1ccccc1)*
Assays:
Format in all cases: cell-based, human
[1] = system: PMA-induced APOBEC3B upregulation; experiment: Inhibitor pretreatment before PMA induction of APOBEC3B in MCF10A cells, RT-qPCR
Experimental: PMA is a well-known agonist of PKC, but it also affects other cellular processes. To determine whether APOBEC3B induction by PMA occurs through PKC signal transduction or an alternative mechanism, a panel of existing PKC inhibitors that vary with respect to class selectivity were analyzed. MCF10A cells were pre-treated for 30 minutes with varying concentrations of the pan-PKC inhibitor G66983 (Gschwendt et al., FEBS Lett. 392(2):77-80, 1996) and then treated for six hours with PMA (25 ng/mL). […] As additional controls, MCF10A cells were pretreated in parallel with the phosphoinositol 3 kinase (PI3K) inhibitor, LY294002, and the mitogen-activated protein kinase kinase (MEK) inhibitor, U0126, prior to PMA induction (FIGS. 2B and 2C).
(§1) For induction experiments, 2.5×10^5 cells were plated in a 6-well plate 1 day prior to drug treatment. PMA was then added to the media and incubated at 37° C. with 5% CO2 for six hours unless otherwise indicated. Cells were harvested, RNA was extracted, and RT-qPCR was performed as previously reported (Refsland et al. 2010, Nucleic Acids Res 38:4274-4284). For experiments utilizing inhibitors, cells were pretreated with inhibitors 30 minutes prior to PMA induction (25 ng/mL). PMA (Thermo Fisher Scientific, Inc., Waltham, Mass.), cyclohexamide (Acros Organics, Thermo Fisher Scientific, Inc., Waltham, Mass.), G66983 (Cayman Chemical co., Ann Arbor, Mich.), LY294002 (EMD Chemicals, Merck KGaA, Darmstadt, Germany), U0126 (EMD Chemicals, Merck KGaA, Darmstadt, Germany), AEB071 (Medchemexpress, Monmouth Junction, N.J.), Go6976 (Enzo Life Sciences, Inc., Farmingdale, N.Y.), BAY 11-7082 (R&D Systems, INc., Minneapolis, Minn.), and MG132 (Thermo Fisher Scientific, Inc., Waltham, Mass.) were stored as recommended. NIKi/Compound 31 was synthesized as described (Li et al., 2013, Bioorganic & Medicinal Chemistry Letters 23:1238-1244).

[2] = system: APOBEC3B promoter region; experiment: Chromatin immunoprecipitation after PMA treatment of MCF10A cells; conditions: PMA for two hours, ChIP-qPCR
Experimental: Next, a series of chromatin immunoprecipitation (ChIP) experiments were performed to determine whether the canonical or noncanonical NFκB pathway is responsible for upregulating APOBEC3B. Primer sets were designed for each of the predicted NFκB binding sites near the APOBEC3B transcriptional start site, as well as a control set in the promoter region of NFKBIA (FIG. 3E). ChIP was performed for RELA, RELB, RNA POL II (positive control), and isotype matched IgG (negative control). RELA, RELB, and RNA POL II were all bound to the NFKBIA promoter following PMA treatment (FIG. 3F). In addition, RNA POL II strongly bound to the APOBEC3B gene near the transcriptional start site (FIG. 3F). Also, RELB bound both near the transcriptional start site and at sites 4 and 5, which are located in intron 2 and too close together to be distinguished by this procedure. Binding also may occur at lower levels at site 3 in intron 1, but the IgG signal was too high to distinguish background from actual binding. These ChIP data strongly implicate the noncanonical NFκB pathway, specifically RELB (and not RELA), in directly inducing APOBEC3B transcription in response to PMA activation of PKC.
MCF10A cells were treated with either DMSO or 25 ng/mL PMA for two hours. Cross-linking was performed with 1% formaldehyde for 10 minutes at room temperature and quenched with 150 mM glycine. […]

[3] = system: APOBEC family members; experiment: mRNA levels of the other APOBEC family members after PMA treatment, RT-qPCR; conditions: MCF10A cells
Experimental: (§2) A panel of immortalized normal human epithelial cells lines and breast cancer cell lines was treated with the model PKC-NFκB pathway activator PMA (or equal amounts of DMSO as a negative control) and previously validated reverse transcription quantitative PCR (RT-qPCR) assays were used to measure mRNA levels of all eleven human APOBEC family members. APOBEC3B mRNA was induced specifically by PMA treatment of several lines including the immortalized normal breast epithelial cell line MCF10A (FIG. 6). Under standard cell culture conditions, MCF10A expresses low levels of APOBEC3B and APOBEC3F, even lower levels of APOBEC3G and APOBEC3H, high levels of APOBEC3C, and undetectable levels of all other APOBEC family members.
For induction experiments, 2.5×10^5 cells were plated in a 6-well plate 1 day prior to drug treatment. PMA was then added to the media and incubated at 37° C. with 5% CO2 for six hours unless otherwise indicated. Cells were harvested, RNA was extracted, and RT-qPCR was performed as previously reported (Refsland et al. 2010, Nucleic Acids Res 38:4274-4284). For experiments utilizing inhibitors, cells were pretreated with inhibitors 30 minutes prior to PMA induction (25 ng/mL). […]

[4] = system: RELA, NFKB1, RELB and NFKB2; experiment: RNA sequencing of PMA-treated MCF10A cells, NFκB components; conditions: RNAseq
Experimental: (§3) Two sets of MCF10A cells in duplicate were treated every eight hours with media supplemented with PMA or DMSO for 48 hours. At 48 hours, RNA was extracted using an RNeasy Mini Kit (Qiagen, Hilden, Germany). Total RNA was submitted to the University of Minnesota Genomics Center for sequencing on the Illumina HiSeq 2000 platform. Raw reads were analyzed using both DESeq2 (Love et al., 2014, Genome Biol. 15:550) and the Tuxedo suite (Trapnell et al., 2012, Nat Protoc. 7:562-578) to identify changes in mRNA expression in PMA treated versus untreated cells.

[5] = system: PKCα (PRKCA); experiment: RNA sequencing of PMA-treated MCF10A cells, PKC isoforms; conditions: RNAseq, in comparison to DMSO
Experimental: as §3

[6] = system: APOBEC3B; experiment: PMA induction of APOBEC3B mRNA in MCF10A cells, RT-qPCR
Experimental: as §2, §1

[7] = system: APOBEC3B; experiment: Endogenous APOBEC3B expression in cancer cell lines treated with PKC inhibitor; conditions: 10 μM, 48 hours; breast, ovarian, bladder and head/neck cancer cell lines
Experimental: Four breast cancer cell lines, four ovarian cancer cell lines, four bladder cancer cell lines, and four head/neck cancer cell lines were analyzed to determine whether the constitutively high levels of endogenous APOBEC3B observed in many human cancer cell lines occurs through the PKC pathway. The selected cell lines expressed a 10-fold range of endogenous APOBEC3B mRNA levels (FIG. 4A).
(§4) Each line was treated for 48 hours with 10 μM AEB071, and then APOBEC3B mRNA and protein levels were quantified by RT-qPCR and immunoblotting. As above, no effects on the cell cycle or cell viability were observed (data not shown). This is important since higher concentrations of AEB071 are known to cause cell cycle perturbations and apoptosis in certain cell types. APOBEC3B mRNA levels were reduced by more than half in 7/16 cell lines, including the breast cancer cell lines MDA-MB-468, MDA-MB-453, and HCC1806, the ovarian cancer cell line OVCAR5, and the head/neck lines SQ-20B, JSQ3, and TR146 (FIG. 4B, histogram). Changes of protein levels largely mirrored the mRNA results (FIG. 4B, immunoblot).

[8] = system: cancer cell lines; experiment: Cell cycle and viability of AEB071-treated cancer cell lines; conditions: 10 μM, 48 hours, data not shown
Experimental: as §4

[9] = system: MCF10A cells; experiment: Morphology and viability of inhibitor-treated MCF10A cells; conditions: low concentrations used (5 μM and around), data not shown
Experimental: PMA is a well-known agonist of PKC, but it also affects other cellular processes. To determine whether APOBEC3B induction by PMA occurs through PKC signal transduction or an alternative mechanism, a panel of existing PKC inhibitors that vary with respect to class selectivity were analyzed. MCF10A cells were pre-treated for 30 minutes with varying concentrations of the pan-PKC inhibitor G66983 (Gschwendt et al., FEBS Lett. 392(2):77-80, 1996) and then treated for six hours with PMA (25 ng/mL). […] APOBEC3B was suppressed to background levels with 5 μM G66983, as well as higher concentrations (FIG. 2A). […] As additional controls, MCF10A cells were pretreated in parallel with the phosphoinositol 3 kinase (PI3K) inhibitor, LY294002, and the mitogen-activated protein kinase kinase (MEK) inhibitor, U0126, prior to PMA induction (FIGS. 2B and 2C).

[10] = 30-minute pretreatment, then PMA 25 ng/mL for six hours

CC(C)C[C@@H](C=O)NC(=O)[C@H](CC(C)C)NC(=O)[C@H](CC(C)C)NC(=O)OCc1ccccc1 [MG132] (Cbz-Leu-Leu-Leu-aldehyde)
effect on PMA-induced APOBEC3B induction [1, 10]: dose responsive inhibition; also recorded: decreased in a dose dependent manner

Cc1ccc(S(=O)(=O)/C=C/C#N)cc1 [BAY 11-7082]
effect on PMA-induced APOBEC3B induction [1, 10]: dose responsive inhibition; also recorded: strong dose-responsive drops

Cn1c2ccccc2c2c3c(c4c5ccccc5n(CCC#N)c4c21)CNC3=O [Go6976]
effect on PMA-induced APOBEC3B induction [1, 10]: inhibited

NC(=O)Nc1sc(-c2ccc(F)cc2)cc1C(N)=O [TPCA-1]
effect on PMA-induced APOBEC3B induction [1, 10]: near the IC50 for IKKα, not IKKβ

CCCCCCCCCCCCCC(=O)O[C@@H]1[C@@H](C)[C@@]2(O)[C@@H](C=C(CO)C[C@]3(O)C(=O)C(C)=C[C@@H]23)[C@@H]2C(C)(C)[C@]12OC(C)=O [PMA, phorbol 12-myristate 13-acetate]
recruitment of RELB and p105/p52 to the APOBEC3B promoter region [2]: specifically and robustly recruited
changes in expression levels of other APOBEC family members [3]: no detectable changes
expression levels of canonical and noncanonical NFκB components after PMA treatment [4]: unaffected
PKCα mRNA levels after PMA treatment [5]: unchanged
time after treatment at which significant APOBEC3B mRNA induction was detected ([6]; PMA 25 ng/ml): 30 min
time post-treatment by which maximal APOBEC3B mRNA levels were observed ([6]; PMA 25 ng/ml): three
PMA concentration at which APOBEC3B induction was near maximal ([6]; dose response): 25 ng/mL
lowest PMA concentration that induced APOBEC3B ([6]; dose response): 1 ng/mL

C[C@@H]1C[C@@H]([C@H](O)CC2CC(=O)NC(=O)C2)C(=O)[C@@H](C)C1 [cyclohexamide]
effect on kinetics of APOBEC3B upregulation by PMA ([1]; 30-minute pretreatment with 10 μg/mL cyclohexamide): not affected

CN(C)CCCn1cc(C2=C(c3c[nH]c4ccccc34)C(=O)NC2=O)c2ccccc21 [BIM-1]
effect on PMA-induced APOBEC3B induction [1, 10]: inhibited

N#CC(=C(/N)Sc1ccccc1N)/C(C#N)=C(\N)Sc1ccccc1N [U0126]
effect on PMA-induced APOBEC3B induction [1, 10]: no suppression
effect on PMA-induced APOBEC3B induction ([1]; 30-minute pretreatment, then PMA 25 ng/mL for six hours, listed as UO126): not

CN1CCN(c2nc(C3=C(c4c[nH]c5ccccc45)C(=O)NC3=O)c3ccccc3n2)CC1 [AEB071]
cell lines in which APOBEC3B mRNA levels were reduced by more than half [7]: 7/16
effects on the cell cycle or cell viability [8]: no effects
potency relative to G66983 in suppressing APOBEC3B induction [1]: approximately 10 fold
effect on PMA-induced APOBEC3B induction [1, 10]: inhibited; also recorded: clear dose dependent suppression
concentration causing complete suppression of APOBEC3B induction ([1]; pretreatment, then PMA): 500 nM

COc1ccc2c(c1)c(C1=C(c3c[nH]c4ccccc34)C(=O)NC1=O)cn2CCCN(C)C [G66983]
morphological defects or viability issues [9]: No morphological defects or viability issues
concentration at which APOBEC3B was suppressed to background levels [1, 10]: 5 µM
effect on PMA-induced APOBEC3B induction [1, 10]: dose responsive suppression
effect on PMA-induced APOBEC3B induction ([1]; 30-minute pretreatment, then PMA 25 ng/mL for six hours, listed as Go6983): inhibited
